Legend:
rheumatoid arthritis = test: Rat arthritis model (Freund complete adjuvant); format: in vivo, Lewis rats; conditions: rats, 10 mg/kg tail vein three times/week
Description: The BCG vaccine was inactivated in a water bath at 80° C. for 1 h, ground thoroughly with incomplete Freund adjuvant, and mixed well to prepare 15 mg/mL Freund complete adjuvant (FCA). Lewis rats were divided into 4 groups: blank group (PBS), untreated group (UT), treatment group 1 (compound) and treatment group 2 (MTX (methotrexate)), with 5 rats in each group and a body weight of […]. Except for the PBS group, rats were intradermally injected with 0.1 mL of FCA in the right hind paw. On day 14 after injection, rats in treatment group 1 (compound) were injected with the compound (10 mg/kg of body weight, dissolved in 100 μL of PBS) through the tail vein three times/week; rats in treatment group 2 (MTX (methotrexate)) were intraperitoneally injected with methotrexate (1.2 mg/kg of body weight) three times/week.
The circumference of the metatarsophalangeal joint was measured. The circumference of the ankle joint of the left hind paw (on the secondary lesion side) of all rats was measured once before modeling, before administration and 3 weeks after administration, respectively, and the percentage of joint swelling was calculated.
The joint index was determined by joint swelling score before administration (Day 0) and 3 weeks after administration. Scoring was carried out based on the redness and swelling degree of the ankle and toe joints of the front and rear limbs of rats and the affected joint index, as follows: 0 for normal; 1 for the redness and swelling of one joint; 2 for the redness and swelling of two or more joints; 3 for severe redness and swelling of the paw below the ankle joint; 4 for the redness and swelling of the entire paw including the ankle joint and inability to bear weight. The limbs were scored separately, and the cumulative sum of the scores was the joint index.
(1) On the day 21 of administration, rats were euthanized after blood collection. […]
(2) Joint synovial proliferation and the degree of sub-synovial inflammation were observed under a light microscope, and synovial cell proliferation was scored.

CypA [1] = biological target: T1, CypA (Homo sapiens, UniProt P62937); test: CypA degradation in A549 cells by Western Blot; format: cell-based; conditions: A549 cell line
T1 construct: A549 cells in the logarithmic phase were collected; endogenous in cells; host or cells: A549
Description: (§1) (1) A549 cells in the logarithmic phase were collected, the concentration of the cell suspension was adjusted, and 100 μL was added per well. The cells to be tested were plated to a density of 10^3 to 10^4 cells/well and incubated at 37° C. under 5% CO2 until the bottom of the wells was covered by a single layer of cells.
(§2) (2) Different concentrations of the compound represented by Formula I were added: 0, 10, 10^2, 10^3, 10^4 and 10^5 nM/well, with 3 replicate wells set, and incubated at 37° C. under 5% CO2 for 12 hours.
(1) The treated cells were scraped off from the culture medium, suspended thoroughly, and then collected by centrifugation at 300 g for 5 minutes. After washing with PBS once, the PBS was discarded.
(2) 100 μL of 2× Loading Buffer was added to each sample, shaken thoroughly to mix well, denatured at 100° C. for 5 minutes, and stored at −20° C. after mixing well or directly used for Western Blot detection. The Formula of 5× Loading Buffer was as follows: 250 mM Tris-HCl (pH 6.8), 10% (W/V) SDS, 0.5% (W/V) bromophenol blue, 50% (V/V) glycerol, 5% (W/V) β-mercaptoethanol (2-ME). […]
2) Sample preparation: protein samples were prepared according to experimental requirements, centrifuged, mixed well, and loaded into the loading wells of SDS-PAGE gel. The loading volume was adjusted appropriately according to the protein quantification results. […]

CypA [2] = biological target: CypA (Mus musculus, UniProt P17742); format: in vivo, C57BL/6 mice; conditions: IBV-infected mice, 10 mg/kg/day, 7 days after infection
IBV-induced pneumonia = tested on: IBV-induced pneumonia; set-up: species or system C57BL/6 mice; conditions: mouse, in vivo
A549 cells [3] = test: Migration and infiltration of lung cancer cells, Transwell chambers; format: cell-based
Description: as §1, with “10^3-10^4” for “10^3 to 10^4”
as §2
The upper chamber of a 24-well cell culture insert ([…] pore size) was coated (no migration) or (invasive) with a matrix (1 mg/mL) and dried at 37° C. for 30 min.
(3) A549/WT and A549/CypA-cells were trypsinized, washed and suspended in serum-free DMEM after treatment with 20 ng/ml TGF-β for 48 h.
(1) DMEM containing 10% fetal bovine serum was added to the lower chamber per approximately 5×10^4 cells inserted in the upper chamber.
(2) After incubation for 6 h (migration) or 24 h (invasion), non-migrating or […] cells residing on the upper part of the insert membrane were removed with a cotton swab.
(3) The cells that migrated to the underside of the membrane were fixed and stained with 2% crystal violet in ethanol.
(4) The stained cells were observed and counted under a Japan Olympus CKX41 microscope.

[4] = tested on: IL-1B, TNF-α, IL-6 and IFN-γ; set-up: species or system C57BL/6 mice; conditions: mouse, in vivo
A549 cells [5] = test: Effect on A549 cell activity by CCK-8 method; format: cell-based; conditions: 0 to 10^5 nM, 12 hours
Description: as §1, §2
(1) 10 μL CCK-8 reagent was added to the above cells in each well and reacted for 2 h.
(2) The incubation was terminated, and the culture medium in the wells was carefully aspirated.
(3) The absorbance of each well was measured using a microplate reader with a wavelength of 450 nm.
(4) The absorbance ratio between the experimental group and the control group was calculated as follows: Cell viability=(Absorbance of the experimental group−Blank control)+ (Absorbance of the control group−Blank control)×100%.

T1 sequence (P62937 whole entry): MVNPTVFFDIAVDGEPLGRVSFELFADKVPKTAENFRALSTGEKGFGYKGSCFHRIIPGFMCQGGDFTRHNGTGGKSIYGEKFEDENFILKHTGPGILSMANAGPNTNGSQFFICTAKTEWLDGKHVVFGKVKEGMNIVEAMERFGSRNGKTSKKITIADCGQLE
Chain of CypA (Mus musculus, UniProt P17742) (P17742 whole entry): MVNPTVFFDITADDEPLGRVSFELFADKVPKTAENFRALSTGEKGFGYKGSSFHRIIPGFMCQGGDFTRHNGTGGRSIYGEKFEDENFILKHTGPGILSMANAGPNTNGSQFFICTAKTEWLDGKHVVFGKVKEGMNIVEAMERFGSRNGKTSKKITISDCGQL

`Cc1ncsc1-c1ccc(C(C)NC(=O)[C@@H]2C[C@@H](O)CN2C(=O)[C@H](NC(=O)COCCCCCOc2cccc(O)c2C(=O)NC(=O)NC2CCCCC2)C(C)(C)C)cc1` (stereo partly drawn) [Formula I] was tested, and the “joint index of the ankle joint” value (rheumatoid arthritis; 3 weeks after administration) was “reduce”, the joint swelling (rheumatoid arthritis; 3 weeks after administration) was “significantly relieve” and the “inflammation of the ankle joint (ankle pathological scores)” value (rheumatoid arthritis; day 21, HE staining) was “alleviate”. The DC50 (CypA [1]; 12 hours, Western Blot, read-out: half-degradation concentration on CypA) was under 100 nM, the “degradation effect on the CypA protein” value (CypA [1]; WB results) was “clearly observed” and the “expression of CypA in mouse lung tissue” value (CypA [2]) was “significantly reduce”. The “lung injury (lung index, pathology, pathological scores)” value (IBV-induced pneumonia) was “significantly alleviate lung injury”, the “infiltration of lung cancer cells” value (A549 cells [3]; Transwell with matrix, 24 h) was “significantly reduce” and the “migration of lung cancer cells” value (A549 cells [3]; Transwell, 6 h) was “significantly reduce”. The “expression of IFN-γ in the lung tissue” value [4] was “significantly reduce”, the “expression of IL-1B in the lung tissue” value [4] was “significantly reduce” and the “expression of IL-6 in the lung tissue” value [4] was “significantly reduce”. The “expression of TNF-α in the lung tissue” value [4] was “significantly reduce”, the lung inflammation [4] was “alleviating lung inflammation” and the cell viability (A549 cells [5]) was “above 80%”.

— patent US20250361267A1, “CHIMERIC COMPOUND FOR DEGRADING CYCLOPHILIN A, PREPARATION METHOD THEREFOR, AND USE THEREOF” (INSTITUTE OF MICROBIOLOGY, CHINESE ACADEMY OF SCIENCES, priority 2022, published 2025)
